In patent publication US10357477B2, “Anticancer compounds” (REGENTS OF THE UNIVERSITY OF MINNESOTA, priority 2016, dated 2019):

How the values were obtained:
MIA PaCa-2 cells = test: Cell viability assay (MTT) in MIA PaCa-2 cells; assay type: cell-based; conditions: Homo sapiens, antiproliferative activity, 72 h
Description: MIA PaCa-2 cells (CRL-1420, ATCC) were maintained in DMEM media supplemented with 10% FBS, 2.5% HS, 1% GlutaMAX, 1% sodium pyruvate, 100 U/mL penicillin, and 100 μg/mL streptomycin. Cell culture media and additives were purchased from Gibco. Cells were plated in 96-well plates at |1−2.5|×10^4 cells per well in the DMEM growth media. One microliter of a 2-fold serially diluted compound solution in DMSO (Sigma) starting at 20 mM (100 μM final concentration) was added to each well. The final volume in each well was 200 μL, yielding a final DMSO concentration of 0.5%. Control wells contained 0.5% DMSO (100% viability) or 25% DMSO (background) and all reactions were done in triplicate. The plate was incubated for 72 h at 37° C. in a 5% CO2/95% air humidified atmosphere.
Measurement of cell viability was carried out using a modified method of Mosmann based on 3-(4,5-dimethylthiazol-2-yl)-2,5-diphenyltetrazolium bromide (MTT, Sigma). MTT solution was prepared fresh at 1 mg/mL in serum-free and phenol red-free RPMI 1640 media. After 200 μL of MTT solution was added to each well, the plate was incubated as described above for 3 h. The MTT solution was removed, and the formazan crystals were solubilized with 200 μL of isopropanol. The plate was read on a SpectraMax i3 spectrophotometer (Molecular Devices) at 570 nm for formazan and 650 nm for background subtraction. EC50 values were calculated by fitting the data in GraphPad Prism software. EC50 values were determined in triplicate.

Panc-1 cells = test: Cell viability assay (MTT) in Panc-1 cells; assay type: cell-based; conditions: Homo sapiens, antiproliferative activity, 72 h
Description: Panc-1 cells are maintained in RPMI 1640 (Invitrogen 11875) media supplemented with 10% FBS, 1% Penicillin/Streptomycin and 1% Glutamax-1. Cells were plated in 96-well plates at 25×10^4 cells/ml. After 24 hours, compounds were added at 9, 3× dilutions in triplicate from 100 uM final concentration in the appropriate growth media. Plates were incubated for 72 hours at 37° C. in a 5% CO2/95% air humidified atmosphere after which time the media was removed and MTT was added in RPMI phenol red free media. The MTT was removed after 3 hours and formazan crystals were solubilized with 200 μL of isopropanol. Plates were read on a Molecular Devices SpectraMax i3 spectrophotometer at 570 nm for formazan and 690 nm for background subtraction. EC50 values were calculated by fitting the data in GraphPad Prism software.

SMILES: Cc1nn(Cc2cccc(C(N)=O)c2)c(C)c1NC(=O)c1ccc(COc2ccccc2)cc1 [Compound A2b, N-(1-(3-Carbamoylbenzyl)-3,5-dimethyl-1H-pyrazol-4-yl)-4-(phenoxymethyl)benzamide]
- EC50 (MIA PaCa-2 cells): 9.2 µM
- EC50 (Panc-1 cells): 11 µM

SMILES: Cc1nn(Cc2ccccc2C(N)=O)c(C)c1NC(=O)c1ccc(COc2ccccc2)cc1 [Compound A2c, N-(1-(2-Carbamoylbenzyl)-3,5-dimethyl-1H-pyrazol-4-yl)-4-(phenoxymethyl)benzamide]
- EC50 (MIA PaCa-2 cells): 42 µM
- EC50 (Panc-1 cells): > 100 µM

SMILES: CNC(=O)c1ccc(Cn2nc(C)c(NC(=O)c3ccc(COc4ccccc4)cc3)c2C)cc1 [Compound A3a, N-(3,5-Dimethyl-1-(4-(methylcarbamoyl)benzyl)-1H-pyrazol-4-yl)-4-(phenoxymethyl)benzamide]
- EC50 (MIA PaCa-2 cells): 12 µM
- EC50 (Panc-1 cells): 36 µM

SMILES: CNC(=O)c1cccc(Cn2nc(C)c(NC(=O)c3ccc(COc4ccccc4)cc3)c2C)c1 [Compound A3b, 3-((3,5-Dimethyl-4-(4-(phenoxymethyl)benzamido)-1H-pyrazol-1-yl)methyl)-N-methylbenzamide]
- EC50 (MIA PaCa-2 cells): 6.2 µM
- EC50 (Panc-1 cells): 5.2 µM

SMILES: CNC(=O)c1ccccc1Cn1nc(C)c(NC(=O)c2ccc(COc3ccccc3)cc2)c1C [Compound A3c, 2-((3,5-Dimethyl-4-(4-(phenoxymethyl)benzamido)-1H-pyrazol-1-yl)methyl)-N-methylbenzamide]
- EC50 (MIA PaCa-2 cells): 7.7 µM
- EC50 (Panc-1 cells): 14 µM

SMILES: Cc1nn(Cc2cccc(C(=O)N(C)C)c2)c(C)c1NC(=O)c1ccc(COc2ccccc2)cc1 [Compound A4a, 3-((3,5-Dimethyl-4-(4-(phenoxymethyl)benzamido)-1H-pyrazol-1-yl)methyl)-N,N-dimethylbenzamide]
- EC50 (MIA PaCa-2 cells): 6.4 µM
- EC50 (Panc-1 cells): 1.2 µM

SMILES: CCNC(=O)c1cccc(Cn2nc(C)c(NC(=O)c3ccc(COc4ccccc4)cc3)c2C)c1 [Compound A4b, 3-((3,5-Dimethyl-4-(4-(phenoxymethyl)benzamido)-1H-pyrazol-1-yl)methyl)-N-ethylbenzamide]
- EC50 (MIA PaCa-2 cells): 11 µM
- EC50 (Panc-1 cells): 1.6 µM

SMILES: Cc1nn(Cc2cccc(C(=O)NC(C)C)c2)c(C)c1NC(=O)c1ccc(COc2ccccc2)cc1 [Compound A4c, 3-((3,5-Dimethyl-4-(4-(phenoxymethyl)benzamido)-1H-pyrazol-1-yl)methyl)-N-isopropylbenzamide]
- EC50 (MIA PaCa-2 cells): 8.9 µM
- EC50 (Panc-1 cells): 1.4 µM

SMILES: Cc1nn(Cc2ccc([N+](=O)[O-])cc2)c(C)c1NC(=O)c1ccc(COc2ccccc2)cc1 [Compound A5a, N-(3,5-Dimethyl-1-(4-nitrobenzyl)-1H-pyrazol-4-yl)-4-(phenoxymethyl)benzamide]
- EC50 (MIA PaCa-2 cells): 7.8 µM
- EC50 (Panc-1 cells): 23 µM

SMILES: Cc1nn(Cc2cccc([N+](=O)[O-])c2)c(C)c1NC(=O)c1ccc(COc2ccccc2)cc1 [Compound A5b, N-(3,5-Dimethyl-1-(3-nitrobenzyl)-1H-pyrazol-4-yl)-4-(phenoxymethyl)benzamide]
- EC50 (MIA PaCa-2 cells): 11 µM
- EC50 (Panc-1 cells): 20 µM

SMILES: Cc1nn(Cc2ccccc2[N+](=O)[O-])c(C)c1NC(=O)c1ccc(COc2ccccc2)cc1 [Compound A5c, N-(3,5-Dimethyl-1-(2-nitrobenzyl)-1H-pyrazol-4-yl)-4-(phenoxymethyl)benzamide]
- EC50 (MIA PaCa-2 cells): 6 µM
- EC50 (Panc-1 cells): 5.3 µM

SMILES: Cc1nn(Cc2ccc(N)cc2)c(C)c1NC(=O)c1ccc(COc2ccccc2)cc1 [Compound A6a, N-(1-(4-Aminobenzyl)-3,5-dimethyl-1H-pyrazol-4-yl)-4-(phenoxymethyl)benzamide]
- EC50 (MIA PaCa-2 cells): > 100 µM
- EC50 (Panc-1 cells): 44 µM

SMILES: Cc1nn(Cc2cccc(N)c2)c(C)c1NC(=O)c1ccc(COc2ccccc2)cc1 [Compound A6b, N-(1-(3-Aminobenzyl)-3,5-dimethyl-1H-pyrazol-4-yl)-4-(phenoxymethyl)benzamide]
- EC50 (MIA PaCa-2 cells): 35 µM
- EC50 (Panc-1 cells): 9.7 µM

SMILES: Cc1nn(Cc2ccccc2N)c(C)c1NC(=O)c1ccc(COc2ccccc2)cc1 [Compound A6c, N-(1-(2-Aminobenzyl)-3,5-dimethyl-1H-pyrazol-4-yl)-4-(phenoxymethyl)benzamide]
- EC50 (MIA PaCa-2 cells): 11 µM
- EC50 (Panc-1 cells): 22 µM

SMILES: CC(=O)Nc1ccc(Cn2nc(C)c(NC(=O)c3ccc(COc4ccccc4)cc3)c2C)cc1 [Compound A7a, N-(1-(4-Acetamidobenzyl)-3,5-dimethyl-1H-pyrazol-4-yl)-4-(phenoxymethyl)benzamide]
- EC50 (MIA PaCa-2 cells): 50 µM
- EC50 (Panc-1 cells): > 100 µM

SMILES: CC(=O)Nc1cccc(Cn2nc(C)c(NC(=O)c3ccc(COc4ccccc4)cc3)c2C)c1 [Compound A7b, N-(1-(3-Acetamidobenzyl)-3,5-dimethyl-1H-pyrazol-4-yl)-4-(phenoxymethyl)benzamide]
- EC50 (MIA PaCa-2 cells): 2.7 µM
- EC50 (Panc-1 cells): 12 µM

SMILES: CC(=O)Nc1ccccc1Cn1nc(C)c(NC(=O)c2ccc(COc3ccccc3)cc2)c1C [Compound A7c, N-(1-(2-Acetamidobenzyl)-3,5-dimethyl-1H-pyrazol-4-yl)-4-(phenoxymethyl)benzamide]
- EC50 (MIA PaCa-2 cells): 2.6 µM
- EC50 (Panc-1 cells): 31 µM

SMILES: CNC(=O)c1cccc(Cn2nc(C)c(NC(=O)c3ccc(CCc4ccccc4)cc3)c2C)c1 [Compound C3, 3-((3,5-Dimethyl-4-(4-phenethylbenzamido)-1H-pyrazol-1-yl)methyl)-N-methylbenzamide]
- EC50 (MIA PaCa-2 cells): 5.4 µM
- EC50 (Panc-1 cells): 0.76 µM

SMILES: CNC(=O)c1cccc(Cn2nc(C)c(NC(=O)c3ccc(C(=O)Nc4ccccc4)cc3)c2C)c1 [Compound C4, N^1-(3,5-Dimethyl-1-(3-(methylcarbamoyl)benzyl)-1H-pyrazol-4-yl)-N^4-phenylterephthalamide]
- EC50 (MIA PaCa-2 cells): 69 µM
- EC50 (Panc-1 cells): 51 µM

SMILES: CNC(=O)c1cccc(Cn2nc(C)c(NC(=O)c3ccc(OCc4ccccc4)cc3)c2C)c1 [Compound C5, 3-((4-(4-(Benzyloxy)benzamido)-3,5-dimethyl-1H-pyrazol-1-yl)methyl)-N-methylbenzamide]
- EC50 (MIA PaCa-2 cells): 8.2 µM
- EC50 (Panc-1 cells): 6 µM

SMILES: CNC(=O)c1cccc(Cn2nc(C)c(NC(=O)c3ccc(COc4cccc5ccccc45)cc3)c2C)c1 [Compound D2, 3-((3,5-Dimethyl-4-(4-((naphthalen-1-yloxy)methyl)benzamido)-1H-pyrazol-1-yl)methyl)-N-methylbenzamide]
- EC50 (MIA PaCa-2 cells): 6 µM
- EC50 (Panc-1 cells): 1.3 µM

SMILES: CNC(=O)c1cccc(Cn2nc(C)c(NC(=O)c3ccc(COc4ccccc4C)cc3)c2C)c1 [Compound D3a, 3-((3,5-Dimethyl-4-(4-((o-tolyloxy)methyl)benzamido)-1H-pyrazol-1-yl)methyl)-N-methylbenzamide]
- EC50 (MIA PaCa-2 cells): 2.1 µM
- EC50 (Panc-1 cells): 0.61 µM

SMILES: CNC(=O)c1cccc(Cn2nc(C)c(NC(=O)c3ccc(COc4cccc(C)c4)cc3)c2C)c1 [Compound D3b, 3-((3,5-Dimethyl-4-(4-((m-tolyloxy)methyl)benzamido)-1H-pyrazol-1-yl)methyl)-N-methylbenzamide]
- EC50 (MIA PaCa-2 cells): 6.2 µM
- EC50 (Panc-1 cells): 0.56 µM

SMILES: CNC(=O)c1cccc(Cn2nc(C)c(NC(=O)c3ccc(COc4ccc(C)cc4)cc3)c2C)c1 [Compound D3c, 3-((3,5-Dimethyl-4-(4-((p-tolyloxy)methyl)benzamido)-1H-pyrazol-1-yl)methyl)-N-methylbenzamide]
- EC50 (MIA PaCa-2 cells): 2.6 µM
- EC50 (Panc-1 cells): 13 µM

SMILES: CNC(=O)c1cccc(Cn2nc(C)c(NC(=O)c3ccc(COc4ccccc4OC)cc3)c2C)c1 [Compound D4a, 3-((4-(4-((2-Methoxyphenoxy)methyl)benzamido)-3,5-dimethyl-1H-pyrazol-1-yl)methyl)-N-methylbenzamide]
- EC50 (MIA PaCa-2 cells): 8.5 µM
- EC50 (Panc-1 cells): 25 µM
